Source: patent publication US20200108009A1, “BIOAVAILABLE AEROSOLIZED SUPPLEMENT FORMULATIONS AND METHODS THEREOF” (Inhale Health LLC, priority 2017, published 2020)

Experiments:
[1] = Serum vitamin B12 levels after inhalation of aerosolized sample (Example 7); format: in vivo; settings: 75 minutes after initial inhalation
Experimental: An electronic inhaler device powered by a 4.2V, 320 mAh lithium-ion battery was used to aerosolize a sample containing vitamin B12 in organic vegetable glycerin and 1,3-propanediol and the aerosolized sample was inhaled by test subjects. The sample was heated to between 75 to 260° C. with a 3 ohm heating element in about 2 to about 3 second intervals with about 5 to about 10 second rest periods for a total of […]. The mixture contained 60% glycerin and 40% 1,3-propanediol to which 2 mg/ml vitamin B12 was added. Serum vitamin B12 levels were measured in the test subjects before inhalation of the aerosolized sample and 75 minutes after initial inhalation of the aerosolized sample. Before inhalation, serum B12 levels averaged 403.0 pg/ml.

[2] = healthy individuals, cited from earlier work

increase of serum B12 compared to levels before inhalation [1]: 5.4% | serum B12 levels after inhalation (average) ([1]; 2 mg/ml vitamin B12, before inhalation 403.0 pg/ml): 424.7 pg/mL
Substance: cobalamin [vitamin B12]
fraction of oral supplement absorbed ([2]; 500 mcg oral supplement): 2% | amount of oral supplement absorbed ([2]; of a 500 mcg oral supplement): about 10 mcg
